Source: paper PMC10150354, “Linearization of the Brevicidine and Laterocidine Lipopeptides Yields Analogues That Retain Full Antibacterial Activity” (Journal of Medicinal Chemistry, 2023)
In brackets after ≈: the same amount, converted by molar mass. Where a SMILES comes first, the peptide text is derived from it. [ ]: non-standard residue; d: D form. The star is where a group is joined. ξ: configuration not given here. Octanoyl(7-Me) = CC(C)CCCCCC(=O)*; Hexanoyl(4ξ-Me) = CCC(C)CCC(=O)*; dOrn = NCCC[C@@H](N)C(=O)O; Orn = NCCC[C@H](N)C(=O)O; Dap = NC[C@H](N)C(=O)O; Alloc = C=CCOC(=O)*

Legend:
K. pneumoniae ATCC 13883 = assay type: cell-based, Klebsiella pneumoniae; settings: microbroth dilution per CLSI, MHB, 18 h at 37 °C, visual inspection, three technical replicates
Procedure, shortened: (§1)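 MIC taken as the lowest concentration with no visible growth after 18 h, 37 °C, shaking, three technical replicates. Peptides were serially diluted in MHB and received cells from TSB cultures at OD600 ~0.5, diluted to 2 × 10^5 CFU/mL (kanamycin selection for the mcr-1 E. coli), following CLSI guidelines.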

[1] = system: panel of Gram-negative and Gram-positive ESKAPE pathogens; assay type: cell-based; settings: for MIC values, summarised over strains: against most strains of the panel
Method: Linear laterocidine (LL-OH, 4) and linear brevicidine (LB-OH, 5) were first synthesized by Fmoc SPPS, starting from 2-chlorotrityl (2-CT) chloride resin. The antibacterial activity of these peptides was then compared to brevicidine (1) and laterocidine (2) using minimum inhibitory concentration (MIC)/microbroth dilution assays (Table 1). The MICs of all peptides were determined against a panel of Gram-negative and Gram-positive ESKAPE pathogens. Additionally, a strain of E. coli carrying the mcr-1 gene was included in the panel. The mcr-1 gene is a transferrable plasmid that confers resistance against colistin, a last-resort antibiotic for Gram-negative infections, by reducing the overall negative charge of lipopolysaccharide (LPS) through modification of lipid A with phosphoethanolamine. The propensity for cationic antibiotics to bind to the cell membrane is therefore reduced. This gene has been observed in more than 27 bacterial species over six continents.[26] The spread of the mcr-1 gene could render colistin ineffectual; therefore, novel antibacterials are urgently required to overcome this form of resistance.
All minimum inhibitory concentrations (MICs) were determined according to Clinical and Laboratory Standards Institute (CLSI) guidelines. Blood agar plates were inoculated with glycerol stocks of E. coli ATCC 25922, K. pneumoniae ATCC 13883, A. baumannii ATCC 17961, P. aeruginosa PAO1, and S. aureus USA300. The inoculated agar plates were then incubated for 16 h at 37 °C. Individually grown colonies were subsequently used to inoculate 5 mL aliquots of TSB that were then incubated at 37 °C with shaking at 220 rpm. E. coli 25922 MCR-1 glycerol stock was used to inoculate 5 mL of TSB supplemented with kanamycin that was then incubated for 16 h at 37 °C with shaking at 220 rpm. The next day the culture was diluted 100-fold in TSB supplemented with kanamycin and incubated at 37 °C with shaking at 220 rpm. In parallel, the lipopeptide antibiotics DMSO stocks to be assessed were serially diluted with MHB in polypropylene 96-well plates (50 μL in each well). Colistin sulfate stocks were dissolved in water before being diluted with MHB. Aliquots of the inoculated TSB were incubated until an OD600 of around 0.5 was reached. The bacterial suspensions were then diluted with MHB (2 × 10^5 CFU/mL) and added to the microplates containing the test compounds (50 μL to each well). The well plates were sealed with an adhesive membrane and after 18 h of incubation at 37 °C with shaking at 600 rpm, the wells were visually inspected for bacterial growth. MIC values reported are based on three technical replicates and defined as the lowest concentration of the compound that prevented visible growth of bacteria.

A. baumannii ATCC 17961 = assay type: cell-based, Acinetobacter baumannii; settings: microbroth dilution per CLSI, MHB, 18 h at 37 °C, visual inspection, three technical replicates
Procedure, shortened: as §1

P. aeruginosa PAO1 = assay type: cell-based, Pseudomonas aeruginosa; settings: microbroth dilution per CLSI, MHB, 18 h at 37 °C, visual inspection, three technical replicates
Procedure, shortened: as §1

S. aureus USA300 = assay type: cell-based, Staphylococcus aureus; settings: microbroth dilution per CLSI, MHB, 18 h at 37 °C, visual inspection, three technical replicates
Procedure, shortened: as §1

E. coli (MCR-1) = assay type: cell-based, Escherichia coli; settings: microbroth dilution per CLSI, MHB, 18 h at 37 °C, visual inspection, three technical replicates, E. coli 25922 carrying mcr-1
Procedure, shortened: as §1

E. coli ATCC 25922 = assay type: cell-based, Escherichia coli; settings: for Antibacterial activity (MIC) E. coli ATCC 25922: microbroth dilution per CLSI, MHB, 18 h at 37 °C, visual inspection, three technical replicates; for MIC (µg/mL) against E. coli (ATCC 25922): (Supplement 2)
Procedure, shortened: as §1

SMILES | Antibacterial activity (MIC) K. pneumoniae ATCC 13883 (K. pneumoniae ATCC 13883) [µg/mL] | fold improvement in activity with respect to C-terminal acids 4 and 5 ([1]; MIC of C-terminal amide vs C-terminal acid) [fold] | fold reduction in activity compared to parent peptides ([1]; MIC vs brevicidine / laterocidine) | Antibacterial activity (MIC) A. baumannii ATCC 17961 (A. baumannii ATCC 17961) [µg/mL] | Antibacterial activity (MIC) P. aeruginosa PAO1 (P. aeruginosa PAO1) [µg/mL] | Antibacterial activity (MIC) S. aureus USA300 (S. aureus USA300) [µg/mL] | Antibacterial activity (MIC) E. coli (MCR-1) (E. coli (MCR-1)) [µg/mL] | Antibacterial activity (MIC) E. coli ATCC 25922 (E. coli ATCC 25922) [µg/mL] | MIC values, summarised over strains [1] [µg/mL] | MIC (µg/mL) against E. coli (ATCC 25922) (E. coli ATCC 25922) [µg/mL]
CC[C@H](C)[C@H](NC(=O)[C@@H](NC(=O)[C@H](Cc1c[nH]c2ccccc12)NC(=O)[C@@H](CCCN)NC(=O)CNC(=O)[C@H](CCCN)NC(=O)[C@@H](CCCN)NC(=O)[C@@H](Cc1c[nH]c2ccccc12)NC(=O)[C@@H](Cc1ccc(O)cc1)NC(=O)[C@@H](CO)NC(=O)CCCCCC(C)C)[C@@H](C)O)C(=O)N[C@@H](CC(N)=O)C(=O)NCC(=O)NCC(N)=O [LL-NH2 (6)] ({Octanoyl(7-Me)}-[dS][dY][dW][dOrn][Orn]G[dOrn]WTINGG-NH2) | 4 to 8 | 2 | 2/4 | 8 | 4 | >32 | 8 | 4 | – | –
C=CCOC(=O)NC[C@H](NC(=O)[C@H](Cc1c[nH]c2ccccc12)NC(=O)[C@@H](CCCN)NC(=O)CNC(=O)[C@H](CCCN)NC(=O)[C@@H](CCCN)NC(=O)[C@@H](Cc1c[nH]c2ccccc12)NC(=O)[C@@H](Cc1ccc(O)cc1)NC(=O)[C@@H](CC(N)=O)NC(=O)CCC(C)CC)C(=O)N[C@H](C(=O)NCC(N)=O)[C@@H](C)CC (stereo partly drawn) [Δ12LB (Dap[Alloc]9)-NH2 (61)] ({Hexanoyl(4ξ-Me)}-[dN][dY][dW][dOrn][Orn]G[dOrn]W[Dap](Alloc)IG-NH2) | 2 | – | – | 2 | 4 | >32 | 4 | 4 | 2 to 4 | 4 (≈ 2.63 µM)
CCC(C)CCC(=O)N[C@H](CC(N)=O)C(=O)N[C@H](Cc1ccc(O)cc1)C(=O)N[C@H](Cc1c[nH]c2ccccc12)C(=O)N[C@H](CCCN)C(=O)N[C@@H](CCCN)C(=O)NCC(=O)N[C@H](CCCN)C(=O)N[C@@H](Cc1c[nH]c2ccccc12)C(=O)N[C@@H](Cc1ccccc1)C(=O)N[C@H](C(=O)NCC(N)=O)[C@@H](C)CC (stereo partly drawn) [Δ12LB (Phe9)-NH2 (54)] ({Hexanoyl(4ξ-Me)}-[dN][dY][dW][dOrn][Orn]G[dOrn]WFIG-NH2) | 2 to 4 | – | – | 4 | 4 | >32 | 2 to 4 | 2 | 2 to 4 | 4 (≈ 2.67 µM)
